In US8569495B2, “Anthelmintic agents and their use” (Intervet International B.V., priority 2007, dated 2013):
Where two headings read alike, the source gives them in different places.

Tests used:
Haemonchus contortus [1] = test: Efficacy against Haemonchus contortus in sheep; type: in vivo; settings: single treatment 35 days after infection, necropsy 7 days after treatment
Experimental: Anthelmintic effects of compounds of this invention were tested in vivo using Haemonchus contortus in sheep. The sheep were orally infected with approximately 5,000 third-stage larvae of Haemonchus contortus. Thirty-five days after infection, the sheep in the treatment groups were treated once orally or subcutaneously at a dose of 2, 5, 10, and/or 50 mg per kg bodyweight. Seven days after treatment, the sheep were necropsied, and the worm burden in the abomasum was determined. The efficacy was defined as the reduction of the mean worm count in the infected sheep of the treatment groups in comparison to the infected sheep in the untreated negative control group.

[2] = test system: Haemonchus contortus (L4), isolate resistant to benzimidazoles and ivermectin and anthelmintic-sensitive isolate; test: In vitro resistance-breaking activity against Haemonchus contortus L4, resistant versus sensitive isolate (MEC); settings: isolate resistant to benzimidazoles and ivermectin vs sensitive isolate
Experimental: Anthelmintic resistance-breaking effects of compounds of this invention were tested in vitro using larval stage 4 (“L4”) of the parasitic nematode species Haemonchus contortus (Barber's pole worm in ruminants). One isolate of Haemonchus contortus with a resistance to benzimidazoles and ivermectin was tested in comparison to the anthelmintic-sensitive isolate of Haemonchus contortus. When conducting these experiments, various concentrations of the compounds were incubated in 96-well microtiter plates. Parasites were then distributed at 20 larvae per well. The anthelmintic effects were classified by microscopic examination. The microscopic examination included assessing mortality, damage, motility, progression of development, and neutral red uptake by the larvae in comparison to a DMSO-control and standard anthelmintics. The anthelmintic effects were defined by the minimum effective concentration (“MEC”).

Haemonchus contortus [3] = test: Efficacy against Haemonchus contortus in jirds; type: in vivo, jirds (Meriones unguiculatus); settings: single treatment 10 days after infection, necropsy 3 days after treatment
Experimental: Anthelmintic effects of compounds of this invention were tested in vivo using Haemonchus contuortus in jirds (Meriones unguiculatus). The jirds were orally infected with approximately 750-3,000 third-stage larvae of Haemonchus contortus. Ten days after infection, the jirds in the treatment groups were treated once orally or subcutaneously at a dose of 2, 10, and/or 50 mg per kg bodyweight. Three days after treatment, the jirds were necropsied, and the larvae burden in the stomach was determined. The efficacy was defined as the reduction of the mean larvae count in the jirds of the treatment groups in comparison to the infected jirds in the untreated negative control group. All the compounds of this invention tested using this protocol reduced the Haemonchus contortus count in both the oral and subcutaneous experiments.

[4] = test system: Trichostrongylus colubriformis; test: Efficacy against Trichostrongylus colubriformis in cattle; type: in vivo; settings: 10 mg/kg, oral, single treatment 32 days after infection, necropsy 7 days after treatment
Experimental: (§1) Anthelmintic effects of compounds of this invention were tested in vivo using Haemonchus contortus and Trichostrongylus colubriformis in cattle. The cattle were orally infected with approximately 10,000 third-stage larvae of Haemonchus contortus and approximately 30,000 third-stage larvae of Trichostrongylus colubriformis. Thirty-two days after infection, the cattle in the treatment group were treated once orally with the compound of Example 11 at a dose of 10 mg/kg bodyweight. Seven days after treatment, the cattle were necropsied, and the worm burden in the abomasum and the small intestine was determined. The efficacy was defined as the reduction of the mean worm count in the infected cattle of the treatment group in comparison to the infected cattle in the untreated negative control group.

Haemonchus contortus [5] = test: Efficacy against Haemonchus contortus in cattle; type: in vivo; settings: 10 mg/kg, oral, single treatment 32 days after infection, necropsy 7 days after treatment
Experimental: as §1

[6] = test system: Ascaridia galli (L3) and Oesophagostomum dentatum (L3 and L4); test: In vitro anthelmintic activity against larval stages of Ascaridia galli and Oesophagostomum dentatum (MEC); settings: Ascaridia galli, A. galli L3, O. dentatum L3 and L4, 20 larvae per well, microscopic examination
[7] = in vitro, read-out: minimum effective concentration (MEC) against one or more of the tested nematodes
[8] = in vitro, read-out: minimum effective concentration (MEC) against two or more of the tested nematodes

## CN(c1ccc([N+](=O)[O-])c(C(F)(F)F)c1)[C@H]1CC[C@H](OCC(=O)N2CCN(c3ccc(C(F)(F)F)cc3)CC2)CC1 [Example 12, 2-{trans-4-[methyl(4-nitro-3-trifluoromethyl-phenyl)-amino]-cyclohexyloxy}-1-[4-(4-trifluoromethyl-phenyl)-piperazin-1-yl]-ethanone]
Haemonchus contortus [1]; 10 mg/kg, oral
  % Reduction in H. contortus count: 53%
Haemonchus contortus [1]; 10 mg/kg, subcutaneous
  % Reduction in H. contortus count: 0%

## CN(CC1CCN(c2ccc(C(F)(F)F)cc2)CC1)C(=O)[C@H]1CC[C@H](Nc2ccc([N+](=O)[O-])c(C(F)(F)F)c2)CC1 [Example 57, trans-N-methyl-4-(4-nitro-3-(trifluoromethyl)phenylamino)-N-((1-(4-(trifluoromethyl)phenyl)piperidin-4-yl)methyl)cyclohexanecarboxamide]
Haemonchus contortus [1]; 10 mg/kg, oral
  % Reduction in H. contortus count: 83%
Haemonchus contortus [1]; 10 mg/kg, subcutaneous
  % Reduction in H. contortus count: 0%
[2]
  activity against the resistant isolate compared with the sensitive isolate of Haemonchus contortus: same activity

## O=C(CO[C@H]1CC[C@H](Nc2ccc([N+](=O)[O-])c(C(F)(F)F)c2)CC1)N1CCN(c2ccc(C(F)(F)F)cc2)CC1 [Example 11, 2-[trans-4-(4-nitro-3-trifluoromethyl-phenylamino)-cyclohexyloxy]-1-[4-(4-trifluoromethyl-phenyl)-piperazin-1-yl]-ethanone]
Haemonchus contortus [3]; 2 mg/kg, oral
  % Reduction in H. contortus count: 84%
Haemonchus contortus [3]; 2 mg/kg, subcutaneous
  % Reduction in H. contortus count: 69%
Haemonchus contortus [3]; 50 mg/kg, oral
  % Reduction in H. contortus count: 98%
Haemonchus contortus [3]; 50 mg/kg, subcutaneous
  % Reduction in H. contortus count: 99%
Haemonchus contortus [1]; 2 mg/kg, oral
  % Reduction in H. contortus count: 0%
Haemonchus contortus [1]; 5 mg/kg, oral
  % Reduction in H. contortus count: 95%
Haemonchus contortus [1]; 10 mg/kg, oral
  % Reduction in H. contortus count: 100%
[4]
  Efficacy against T. colubriformis (reduction of the mean worm count): 99%
Haemonchus contortus [5]
  Efficacy against H. contortus (reduction of the mean worm count): 98%
[2]
  activity against the resistant isolate compared with the sensitive isolate of Haemonchus contortus: same activity

## CC(C)(C)c1ccc(N2CCN(C(=S)COC3CCC(Nc4ccc(OC(F)(F)F)c(C(F)(F)F)c4)CC3)CC2)cc1 (centres unmarked) [Example 206]
[6]; [7]
  minimal effective concentration: < 1 µM

## CCOc1ccc(N2CCC(CNC(=O)C3CCC(Nc4ccc([N+](=O)[O-])c(C(F)(F)F)c4)CC3)CC2)cc1 (centres unmarked) [Example 125]
[6]; [7]
  minimal effective concentration: < 1 µM

## N#Cc1ccc(N2CCN(C(=O)COC3CCC(Nc4ccc([N+](=O)[O-])c(C(F)(F)F)c4)CC3)CC2)cc1C(F)(F)F (centres unmarked) [Example 64]
[6]; [8]
  minimal effective concentration: < 1 µM

## CCC(OC1CCC(Nc2ccc([N+](=O)[O-])c(C(F)(F)F)c2)CC1)C(=O)N1CCN(c2ccc(C(F)(F)F)cc2)CC1 (centres unmarked) [Example 226]
[6]; read-out: minimum effective concentration (MEC) against two or more of the tested nematodes, in vitro
  minimal effective concentration: < 1 µM

## N#Cc1cc([N+](=O)[O-])ccc1N[C@H]1CC[C@H](OCC(=O)N2CCN(c3ccc(Cl)cc3)CC2)CC1 [Example 245]
[6]; [7]
  minimal effective concentration: < 7 µM

## COc1ccc(N2CCN(C(=S)COC3CCC(Nc4ccc([N+](=O)[O-])c(C(F)(F)F)c4)CC3)CC2)cc1OC (centres unmarked) [Example 207]
[6]; [7]
  minimal effective concentration: < 1 µM

## O=[N+]([O-])c1ccc(NC2CCC(OCC(=S)N3CCN(c4ccc(Cl)c(C(F)(F)F)c4)CC3)CC2)cc1C(F)(F)F (centres unmarked) [Example 221]
[6]; [7]
  minimal effective concentration: < 1 µM

## O=C(COC1CCC(Nc2ccc([N+](=O)[O-])c(C(F)(F)F)c2)CC1)N1CCC(Nc2ccc([N+](=O)[O-])c(C(F)(F)F)c2)CC1 (centres unmarked) [Example 189]
[6]; [8]
  minimal effective concentration: < 1 µM

## O=[N+]([O-])c1ccc(NC2CCC(OCCN3CCN(c4ccc(C(F)(F)F)cc4)CC3)CC2)cc1C(F)(F)F (centres unmarked) [Example 119]
[6]; [7]
  minimal effective concentration: < 1 µM

## N#Cc1ccc(NC2CCC(OCC(=O)N3CCCN(c4ccc(SC(F)(F)F)cc4)CC3)CC2)cc1C(F)(F)F (centres unmarked) [Example 160]
[6]; [8]
  minimal effective concentration: < 1 µM

## CC(C)(C)c1ccc(N2CCN(C(=O)COC3CCC(Oc4ccc([N+](=O)[O-])c(C(F)(F)F)c4)CC3)CC2)cc1 (centres unmarked) [Example 260]
[6]; [8]
  minimal effective concentration: < 1 µM
